Source: patent US9526680B2, “Method for searching for malodor control agent, malodor control agent, and malodor control method” (Kao Corporation, priority 2010, dated 2016)
Entries after “also recorded” stand apart in the source; their conditions may differ.

Tests used:
[1] = biological target: T1, OR2W1 (Homo sapiens, UniProt Q9Y3N9); experiment: Luciferase reporter gene assay, OR2W1 expressed in HEK293 cells; assay type: cell-based; conditions: fold increase of luciferase emission; 1 mM hexanoic acid or 300 μM nonanoic acid, or concentration series up to 1000 μM
T1 construct: expressed in transfected cells; host or cells: HEK293
T1 sequence (Q9Y3N9 1-320): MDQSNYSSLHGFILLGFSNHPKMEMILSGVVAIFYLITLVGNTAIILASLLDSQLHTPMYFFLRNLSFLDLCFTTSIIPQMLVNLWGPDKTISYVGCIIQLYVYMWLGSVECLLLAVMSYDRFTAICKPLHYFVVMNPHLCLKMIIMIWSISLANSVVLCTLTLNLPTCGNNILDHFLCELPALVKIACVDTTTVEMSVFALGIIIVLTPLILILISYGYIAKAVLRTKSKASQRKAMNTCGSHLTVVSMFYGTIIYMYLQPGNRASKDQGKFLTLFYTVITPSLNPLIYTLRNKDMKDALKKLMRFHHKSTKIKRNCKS
Description: (§1) Cloning of human olfactory receptors was performed based on the sequence information registered in GenBank, through PCR with human genomic DNA female (G1521: Promega) as a template. Each of the genes amplified through PCR was inserted into a pENTR vector (Invitrogen) according to an instruction manual. Then, the gene-inserted vector was digested with NotI and AscI, and the obtained fragments were inserted into NotI and AscI sites located downstream of the Flag-Rho tag sequence in the pME18S vector.
(§2) Each of the 350 types of human olfactory receptors was expressed in HEK293 cells. A reaction solution having a composition shown in Table 2 was prepared on a clean bench, and left to stand for 15 minutes. The solution was dispensed to each well of a 96-well plate (BD). Subsequently, […] cells (100 μL, 3×10^5 cells/cm^2) were seeded in each well and cultured for 24 hours in an incubator at 37° C. and under 5% CO2 conditions.
(§3) The olfactory receptor expressed in HEK293 cell was conjugated with cell-intrinsic Gas to activate adenylate cyclase, and thereby the level of intracellular cAMP was increased. For the measurement of the response to odor in this study, the luciferase reporter gene assay was used, in which an increase in the amount of intracellular cAMP was monitored by using the emission value originating from firefly luciferase gene (fluc2P-CRE-hygro) as an indicator. Furthermore, a gene product obtained by fusing renilla luciferase gene in the downstream of CMV promoter (hRluc-CMV) was simultaneously introduced, and this was used as an internal standard for correcting an error in the transgenesis efficiency or the number of cells. The medium was removed from the culture prepared in the above-described section 3) by using a Pipetman, and 75 μl of a solution containing an odor substance (1 mM hexanoic acid or 300 μM nonanoic acid) prepared in CD293 medium (Invitrogen) was added thereto. The cells were cultured for 4 hours in a CO2 incubator, and the luciferase gene was sufficiently expressed in the cells. For the measurement of luciferase activity, the measurement was carried out by using a Dual-Glo™ luciferase assay system (Promega) according to the operation manual of the product. A value calculated by dividing the emission value, derived from a firefly luciferase induced by the stimulation with an odor substance, by the emission value in cells that were not-stimulated with an odor substance, was designated as a fold increase, and used as an index of response intensity.
(§4) OR2W1, OR10A6, OR51E1, OR51I2, and OR51L1 were respectively expressed in HEK293 cells by the same method as that used in Example 1, and a luciferase assay was carried out. In the luciferase assay, hexanoic acid was used as the odorous substance, and test substances were added together with hexanoic acid. The response of the olfactory receptors to hexanoic acid was measured, and a decrease in the receptor response to the addition of test substances was evaluated.
(§5) The inhibition ratios of the receptor response to test substances were calculated as follows. The emission value (Y) obtained from the cells in which the same receptors were introduced but no odor stimulation was conducted, was subtracted from the emission value derived from firefly luciferase (X) induced by odor stimulation with hexanoic acid alone. Similarly, the emission value (Y) obtained from the cells in which no odor stimulation was conducted, was subtracted from the emission value (Z) caused by stimulation with a mixture of hexanoic acid and a test substance. By the following calculation formula, the inhibitory activity of the test substance to receptor response was calculated based on the increment of the emission value (X−Y) caused by stimulation of hexanoic acid alone. Multiple independent experiments were performed in duplicate, and the average of each experiment was obtained. Inhibition ratio (%)={1−(Z−Y)/(X−Y)}×100 […]

[2] = biological target: T2, OR51E1 (Homo sapiens, UniProt Q8TCB6); experiment: Luciferase reporter gene assay, OR51E1 expressed in HEK293 cells; assay type: cell-based; conditions: fold increase of luciferase emission; 1 mM hexanoic acid or 300 μM nonanoic acid, or concentration series up to 1000 μM
T2 construct: expressed in transfected cells; host or cells: HEK293
T2 sequence (Q8TCB6 1-318): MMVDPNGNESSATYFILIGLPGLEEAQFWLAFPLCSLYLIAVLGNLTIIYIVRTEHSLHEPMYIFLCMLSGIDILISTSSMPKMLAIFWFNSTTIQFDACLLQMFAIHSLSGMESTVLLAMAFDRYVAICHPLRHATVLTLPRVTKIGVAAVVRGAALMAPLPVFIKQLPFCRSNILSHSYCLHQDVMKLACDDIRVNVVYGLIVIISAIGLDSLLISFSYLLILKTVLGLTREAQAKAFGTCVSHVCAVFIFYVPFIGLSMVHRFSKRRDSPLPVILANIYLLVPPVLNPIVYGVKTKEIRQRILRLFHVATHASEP
Description: as §1, §2, §3, §4, §5

[3] = biological target: T3, OR51L1 (Homo sapiens, UniProt Q8NGJ5); experiment: Luciferase reporter gene assay, OR51L1 expressed in HEK293 cells; assay type: cell-based; conditions: fold increase of luciferase emission; 1 mM hexanoic acid or 300 μM nonanoic acid, or concentration series up to 1000 μM
T3 construct: expressed in transfected cells; host or cells: HEK293
T3 sequence (Q8NGJ5 1-315): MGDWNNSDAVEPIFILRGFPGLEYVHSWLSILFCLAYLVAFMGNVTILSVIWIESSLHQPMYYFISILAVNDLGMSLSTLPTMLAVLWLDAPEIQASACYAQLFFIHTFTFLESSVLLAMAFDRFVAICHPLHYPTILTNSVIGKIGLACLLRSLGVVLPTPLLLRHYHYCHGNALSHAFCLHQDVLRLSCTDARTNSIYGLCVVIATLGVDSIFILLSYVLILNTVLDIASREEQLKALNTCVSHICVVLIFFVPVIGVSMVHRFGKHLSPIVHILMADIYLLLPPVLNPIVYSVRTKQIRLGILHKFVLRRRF
Description: as §1, §2, §3, §4, §5

[4] = biological target: T4, OR51I2 (Homo sapiens, UniProt Q9H344); experiment: Luciferase reporter gene assay, OR51I2 expressed in HEK293 cells; assay type: cell-based; conditions: fold increase of luciferase emission; 1 mM hexanoic acid or 300 μM nonanoic acid, or concentration series up to 1000 μM
T4 construct: expressed in transfected cells; host or cells: HEK293
T4 sequence (Q9H344 1-312): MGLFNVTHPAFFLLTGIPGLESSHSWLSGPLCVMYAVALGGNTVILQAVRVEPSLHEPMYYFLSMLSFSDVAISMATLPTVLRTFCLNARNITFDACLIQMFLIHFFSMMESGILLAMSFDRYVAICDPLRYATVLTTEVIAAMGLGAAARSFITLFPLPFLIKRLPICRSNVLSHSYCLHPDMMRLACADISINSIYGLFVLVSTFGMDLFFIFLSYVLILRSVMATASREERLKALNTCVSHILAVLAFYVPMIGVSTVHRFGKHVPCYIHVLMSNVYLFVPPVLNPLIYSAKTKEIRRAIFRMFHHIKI
Description: as §1, §2, §3, §4, §5

[5] = biological target: T5, OR10A6 (Homo sapiens, UniProt Q8NH74); experiment: Luciferase reporter gene assay, OR10A6 expressed in HEK293 cells; assay type: cell-based; conditions: for Response of OR10A6 to the odor substance: fold increase of luciferase emission, 1 mM hexanoic acid or 300 μM nonanoic acid, or concentration series up to 1000 μM; for Inhibition ratio of OR10A6 response: response to hexanoic acid, test substance added together with hexanoic acid, HEK293
T5 construct: expressed in transfected cells; host or cells: HEK293
T5 sequence (Q8NH74 1-314): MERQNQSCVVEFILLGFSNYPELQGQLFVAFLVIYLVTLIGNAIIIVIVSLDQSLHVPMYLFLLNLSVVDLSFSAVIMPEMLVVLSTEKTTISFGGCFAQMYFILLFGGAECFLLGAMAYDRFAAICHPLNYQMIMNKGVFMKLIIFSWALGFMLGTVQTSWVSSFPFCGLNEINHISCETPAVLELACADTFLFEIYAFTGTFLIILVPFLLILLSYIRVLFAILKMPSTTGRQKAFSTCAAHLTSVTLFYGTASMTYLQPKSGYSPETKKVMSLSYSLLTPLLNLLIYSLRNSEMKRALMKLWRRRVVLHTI
Description: as §1, §2, §3, §4
The inhibition ratios of the receptor response to test substances were calculated as follows. The emission value (Y) obtained from the cells in which the same receptors were introduced but no odor stimulation was conducted, was subtracted from the emission value derived from firefly luciferase (X) induced by odor stimulation with hexanoic acid alone. Similarly, the emission value (Y) obtained from the cells in which no odor stimulation was conducted, was subtracted from the emission value (Z) caused by stimulation with a mixture of hexanoic acid and a test substance. By the following calculation formula, the inhibitory activity of the test substance to receptor response was calculated based on the increment of the emission value (X−Y) caused by stimulation of hexanoic acid alone. Multiple independent experiments were performed in duplicate, and the average of each experiment was obtained. Inhibition ratio (%)={1−(Z−Y)/(X−Y)}×100

[6] = Sensory evaluation test of hexanoic acid odor inhibition; assay type: in vivo
Description: Cotton balls were introduced into a glass bottle (Hakuyo Glass Co., Ltd. No. 11, capacity 110 ml), and hexanoic acid diluted 100 times with propylene glycol, nonanoic acid diluted 10 times with propylene glycol, or isovaleric acid diluted 1000 times with propylene glycol, as a malodor, and a test substance were added dropwise in an amount of […] to the cotton balls. The glass bottle was left to stand overnight at room temperature, and the odor molecules were sufficiently volatilized in the glass bottle. A sensory evaluation test was carried out by a panel of three panelists (5 panelists for isovaleric acid), and while the intensity of odor in the case of adding dropwise the malodor alone was rated as 5, the intensity of the malodor in the case of incorporating a test substance was evaluated on the basis of a system of 20 grades from 0 point to 10 points (0.5 points per grade).
Regarding the test substance, florhydral (Givaudan SA), bourgeonal (Givaudan SA), hydroxycitronellal (Givaudan SA, International Flavors & Fragrances, Inc., and the like), 4-isopropylcyclohexanecarbaldehyde (synthesized according to a method described in JP-A-2-188549), 4-(2-methoxyphenyl)-2-methyl-2-butanol (JP-A-9-111281), florosa (Givaudan SA), isocyclocitral (Givaudan SA, International Flavors & Fragrances, Inc., and the like), tripral (International Flavors & Fragrances, Inc.), and Pollenal II (Kao Corp.), which had been diluted 100 times with propylene glycol, were used for hexanoic acid; florhydral that had been diluted 10 times with propylene glycol was used for nonanoic acid; and florhydral that had been diluted 1000 times with propylene glycol was used for isovaleric acid.

Compound | Response of OR2W1 to the odor substance [1] | Response of OR51E1 to the odor substance [2] | Response of OR51L1 to the odor substance [3] | Response of OR51I2 to the odor substance [4] | Response of OR10A6 to the odor substance [5] | Inhibition ratio of OR10A6 response [5] | Intensity of odor ([6]; hexanoic acid odor, malodor alone rated as 5, 0 to 10 points, test substance diluted 100 times with propylene glycol, three panelists) | Inhibition of hexanoic acid odor (in words) ([6]; sensory test, test substance diluted 100 times with propylene glycol (FIG. 5, Table 4))
cresol [reference compound] | do not respond | do not respond | do not respond | do not respond | do not respond | – | – | –
CC(C)CC1CC(C)(O)CCO1 (centres unmarked) [Florosa, tetrahydro-4-methyl-2-(2-methylpropyl)-2H-pyran-4-ol] | – | – | – | – | – | 2 (Inhibition ratio: 20% to 50%) | 3.38 | inhibit the hexanoic acid odor
CC(C)C1CCC(C)(C=O)CC1 (centres unmarked) [4-isopropyl-1-methylcyclohexanecarbaldehyde] | – | – | – | – | – | 1 (Inhibition ratio: 50% or higher) | – | –
CCCCCC(=O)O [hexanoic acid, reference compound] | exhibited response; also recorded: concentration-dependent response | exhibited response; also recorded: concentration-dependent response | exhibited response; also recorded: concentration-dependent response | exhibited response; also recorded: concentration-dependent response | exhibited response; also recorded: concentration-dependent response | – | – | –
